Results taken from ChEMBL document CHEMBL5291721, “A preclinical secondary pharmacology resource illuminates target-adverse drug reaction associations of marketed drugs” (Nat Commun, 2023).

Legend:
[1] = molecular target: Sodium channel protein type 5 subunit alpha (Homo sapiens, UniProt Q14524); assay type: functional, cell-based
Cannabinoid receptor 1 [2] = molecular target: T1, Cannabinoid receptor 1 (Homo sapiens, UniProt P21554); assay type: functional
Cannabinoid receptor 1 [3] = molecular target: T1, Cannabinoid receptor 1; assay type: functional, cell-based
Cannabinoid receptor 1 [4] = molecular target: T1, Cannabinoid receptor 1; assay type: functional, cell-based; remark: listed apart in the source
[5] = molecular target: Gamma-aminobutyric acid receptor subunit alpha-1/alpha-2/beta-2/gamma-2 (Homo sapiens, UniProt P14867+P18507+P47869+P47870); assay type: protein-complex assay
Acetylcholinesterase = Acetylcholinesterase (Homo sapiens, UniProt P22303); assay type: functional
[6] = molecular target: Glutamate receptor ionotropic, NMDA 1 (Rattus norvegicus, UniProt P35439)
Histamine H3 receptor = Histamine H3 receptor (Homo sapiens, UniProt Q9Y5N1)
[7] = molecular target: T2, Amine oxidase [flavin-containing] A (Homo sapiens, UniProt P21397); assay type: functional
T2 sequence (P21397 whole entry): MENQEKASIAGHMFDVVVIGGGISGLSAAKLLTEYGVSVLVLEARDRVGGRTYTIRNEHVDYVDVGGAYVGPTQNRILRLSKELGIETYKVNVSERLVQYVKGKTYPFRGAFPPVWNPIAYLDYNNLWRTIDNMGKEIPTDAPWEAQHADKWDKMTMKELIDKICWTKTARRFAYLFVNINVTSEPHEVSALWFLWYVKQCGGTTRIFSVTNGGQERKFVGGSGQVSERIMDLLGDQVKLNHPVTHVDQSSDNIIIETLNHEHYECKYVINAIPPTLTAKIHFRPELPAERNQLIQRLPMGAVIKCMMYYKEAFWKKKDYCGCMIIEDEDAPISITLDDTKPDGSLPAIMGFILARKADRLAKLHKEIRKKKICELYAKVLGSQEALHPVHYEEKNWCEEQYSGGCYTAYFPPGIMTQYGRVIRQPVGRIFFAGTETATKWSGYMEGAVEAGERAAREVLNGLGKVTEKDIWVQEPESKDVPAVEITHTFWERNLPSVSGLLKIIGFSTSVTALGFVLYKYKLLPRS

[8] = molecular target: T3, Alpha-2A adrenergic receptor (Homo sapiens, UniProt P08913); assay type: functional, cell-based
T3 sequence (P08913 whole entry): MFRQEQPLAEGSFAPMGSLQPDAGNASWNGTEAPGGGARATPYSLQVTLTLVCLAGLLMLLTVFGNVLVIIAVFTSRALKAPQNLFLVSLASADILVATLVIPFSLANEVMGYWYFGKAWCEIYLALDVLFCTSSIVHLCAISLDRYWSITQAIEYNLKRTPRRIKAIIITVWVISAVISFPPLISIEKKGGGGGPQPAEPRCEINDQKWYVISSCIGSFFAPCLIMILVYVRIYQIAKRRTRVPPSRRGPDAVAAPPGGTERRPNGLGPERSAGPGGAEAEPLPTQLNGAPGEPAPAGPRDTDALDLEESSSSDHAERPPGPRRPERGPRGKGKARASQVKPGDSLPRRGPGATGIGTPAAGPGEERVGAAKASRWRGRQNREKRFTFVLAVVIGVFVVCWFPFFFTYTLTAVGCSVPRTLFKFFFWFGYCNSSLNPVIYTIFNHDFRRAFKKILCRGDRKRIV

[9] = molecular target: Beta-1 adrenergic receptor (Homo sapiens, UniProt P08588); assay type: functional
Androgen receptor [10] = molecular target: T4, Androgen receptor (Rattus norvegicus, UniProt P15207); assay type: functional
T4 sequence (P15207 whole entry): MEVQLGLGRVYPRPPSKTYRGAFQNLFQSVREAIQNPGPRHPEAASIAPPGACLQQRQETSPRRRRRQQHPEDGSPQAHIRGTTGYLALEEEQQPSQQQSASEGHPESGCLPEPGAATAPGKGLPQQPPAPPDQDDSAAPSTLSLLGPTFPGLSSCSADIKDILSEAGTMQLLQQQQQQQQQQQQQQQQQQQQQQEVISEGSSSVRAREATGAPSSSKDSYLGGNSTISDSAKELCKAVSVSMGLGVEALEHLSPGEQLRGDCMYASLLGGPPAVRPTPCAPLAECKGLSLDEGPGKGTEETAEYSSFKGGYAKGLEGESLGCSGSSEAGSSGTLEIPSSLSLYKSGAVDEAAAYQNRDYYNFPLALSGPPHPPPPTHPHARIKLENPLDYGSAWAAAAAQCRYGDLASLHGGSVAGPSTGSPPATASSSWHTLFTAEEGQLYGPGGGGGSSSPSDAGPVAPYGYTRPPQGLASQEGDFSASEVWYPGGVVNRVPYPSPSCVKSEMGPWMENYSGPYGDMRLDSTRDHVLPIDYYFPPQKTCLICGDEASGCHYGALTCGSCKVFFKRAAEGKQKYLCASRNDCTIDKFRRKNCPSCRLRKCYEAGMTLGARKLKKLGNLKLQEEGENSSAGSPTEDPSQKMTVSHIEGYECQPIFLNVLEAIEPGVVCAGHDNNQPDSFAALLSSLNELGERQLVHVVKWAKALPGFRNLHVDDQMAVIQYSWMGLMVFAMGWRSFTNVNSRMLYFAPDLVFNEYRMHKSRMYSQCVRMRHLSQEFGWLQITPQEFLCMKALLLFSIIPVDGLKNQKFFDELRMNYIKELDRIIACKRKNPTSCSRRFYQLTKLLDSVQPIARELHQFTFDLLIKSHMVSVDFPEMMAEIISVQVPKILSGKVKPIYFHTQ

[11] = molecular target: T5, Alpha-1A adrenergic receptor (Homo sapiens, UniProt P35348); assay type: functional, cell-based
T5 sequence (P35348 whole entry): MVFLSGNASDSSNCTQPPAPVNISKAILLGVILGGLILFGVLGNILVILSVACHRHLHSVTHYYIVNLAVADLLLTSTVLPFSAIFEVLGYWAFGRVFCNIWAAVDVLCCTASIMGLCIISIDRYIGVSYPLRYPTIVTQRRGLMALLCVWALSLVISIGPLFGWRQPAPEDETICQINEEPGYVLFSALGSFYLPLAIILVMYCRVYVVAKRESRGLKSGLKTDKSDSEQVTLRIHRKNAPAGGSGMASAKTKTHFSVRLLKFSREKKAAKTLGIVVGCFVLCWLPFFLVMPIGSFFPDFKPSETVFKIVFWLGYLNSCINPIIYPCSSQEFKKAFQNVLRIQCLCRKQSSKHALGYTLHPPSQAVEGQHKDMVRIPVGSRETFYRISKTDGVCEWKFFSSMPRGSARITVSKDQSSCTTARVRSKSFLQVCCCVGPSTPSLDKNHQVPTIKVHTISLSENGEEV

[12] = molecular target: Beta-2 adrenergic receptor (Homo sapiens, UniProt P07550)
Histamine H1 receptor = Histamine H1 receptor (Homo sapiens, UniProt P35367)
[13] = molecular target: T6, Alpha-2C adrenergic receptor (Homo sapiens, UniProt P18825); assay type: functional
T6 sequence (P18825 whole entry): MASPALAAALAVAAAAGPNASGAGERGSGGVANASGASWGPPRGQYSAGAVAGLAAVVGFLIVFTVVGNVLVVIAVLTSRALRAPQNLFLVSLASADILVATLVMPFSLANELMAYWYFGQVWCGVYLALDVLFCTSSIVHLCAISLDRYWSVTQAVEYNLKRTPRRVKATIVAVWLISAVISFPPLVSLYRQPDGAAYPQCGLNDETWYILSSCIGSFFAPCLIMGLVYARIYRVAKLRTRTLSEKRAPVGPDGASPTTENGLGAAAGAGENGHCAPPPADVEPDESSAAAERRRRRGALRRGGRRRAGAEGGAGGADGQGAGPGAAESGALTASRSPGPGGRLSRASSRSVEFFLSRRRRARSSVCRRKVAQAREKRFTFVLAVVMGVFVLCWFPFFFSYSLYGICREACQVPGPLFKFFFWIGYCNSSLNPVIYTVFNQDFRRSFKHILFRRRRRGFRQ

Histamine H2 receptor = Histamine H2 receptor (Homo sapiens, UniProt P25021); assay type: functional, cell-based
[14] = molecular target: Voltage-dependent L-type calcium channel subunit alpha-1C (Rattus norvegicus, UniProt P22002); assay type: functional
Mu-type opioid receptor = Mu-type opioid receptor (Homo sapiens, UniProt P35372); assay: biochemical; assay type: functional
Androgen receptor [15] = molecular target: T4, Androgen receptor; assay type: functional; remark: listed apart in the source
Further: assay procedure not described here.

T1 sequence (P21554 whole entry): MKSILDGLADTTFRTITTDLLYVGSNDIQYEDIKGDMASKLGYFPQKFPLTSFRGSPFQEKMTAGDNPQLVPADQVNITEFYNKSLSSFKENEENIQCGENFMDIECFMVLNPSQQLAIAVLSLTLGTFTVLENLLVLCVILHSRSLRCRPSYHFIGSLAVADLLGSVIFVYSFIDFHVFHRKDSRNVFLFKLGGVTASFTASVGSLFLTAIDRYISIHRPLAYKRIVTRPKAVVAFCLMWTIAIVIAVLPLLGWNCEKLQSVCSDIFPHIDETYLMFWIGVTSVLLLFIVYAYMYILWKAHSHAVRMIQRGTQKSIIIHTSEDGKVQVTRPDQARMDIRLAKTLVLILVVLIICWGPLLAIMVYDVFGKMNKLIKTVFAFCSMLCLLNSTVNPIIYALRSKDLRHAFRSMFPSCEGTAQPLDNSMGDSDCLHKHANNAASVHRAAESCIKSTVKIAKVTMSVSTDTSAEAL
Chain of Acetylcholinesterase (P22303 whole entry): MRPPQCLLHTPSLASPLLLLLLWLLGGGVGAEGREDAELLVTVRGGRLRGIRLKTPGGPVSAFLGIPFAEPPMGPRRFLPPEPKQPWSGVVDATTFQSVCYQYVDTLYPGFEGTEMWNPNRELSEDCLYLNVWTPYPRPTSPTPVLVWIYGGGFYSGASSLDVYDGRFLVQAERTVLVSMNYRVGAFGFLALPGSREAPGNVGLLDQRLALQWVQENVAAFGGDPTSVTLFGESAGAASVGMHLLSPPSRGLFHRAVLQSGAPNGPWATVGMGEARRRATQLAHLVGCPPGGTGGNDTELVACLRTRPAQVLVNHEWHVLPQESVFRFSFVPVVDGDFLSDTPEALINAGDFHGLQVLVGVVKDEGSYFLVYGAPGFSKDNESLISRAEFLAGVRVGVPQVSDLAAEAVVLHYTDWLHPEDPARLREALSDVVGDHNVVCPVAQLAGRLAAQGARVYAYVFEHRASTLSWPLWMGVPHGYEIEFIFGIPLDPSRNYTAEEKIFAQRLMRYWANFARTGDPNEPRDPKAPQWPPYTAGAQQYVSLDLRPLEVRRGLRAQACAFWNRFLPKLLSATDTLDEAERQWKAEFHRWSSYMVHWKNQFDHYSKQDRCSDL
Chain of Histamine H1 receptor (P35367 whole entry): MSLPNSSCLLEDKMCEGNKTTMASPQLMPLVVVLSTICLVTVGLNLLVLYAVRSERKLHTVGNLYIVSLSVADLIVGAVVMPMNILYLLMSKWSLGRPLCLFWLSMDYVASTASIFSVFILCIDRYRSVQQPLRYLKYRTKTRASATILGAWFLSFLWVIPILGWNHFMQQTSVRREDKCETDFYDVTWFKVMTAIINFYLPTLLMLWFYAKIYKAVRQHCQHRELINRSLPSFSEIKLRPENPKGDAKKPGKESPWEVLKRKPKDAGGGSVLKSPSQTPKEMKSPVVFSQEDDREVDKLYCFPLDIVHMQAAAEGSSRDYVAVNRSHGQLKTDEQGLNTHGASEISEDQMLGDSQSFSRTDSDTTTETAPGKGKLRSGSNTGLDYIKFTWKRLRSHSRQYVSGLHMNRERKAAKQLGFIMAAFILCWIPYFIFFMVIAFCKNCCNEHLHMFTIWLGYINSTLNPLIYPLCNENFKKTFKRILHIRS
Chain of Voltage-dependent L-type calcium channel subunit alpha-1C (P22002 whole entry): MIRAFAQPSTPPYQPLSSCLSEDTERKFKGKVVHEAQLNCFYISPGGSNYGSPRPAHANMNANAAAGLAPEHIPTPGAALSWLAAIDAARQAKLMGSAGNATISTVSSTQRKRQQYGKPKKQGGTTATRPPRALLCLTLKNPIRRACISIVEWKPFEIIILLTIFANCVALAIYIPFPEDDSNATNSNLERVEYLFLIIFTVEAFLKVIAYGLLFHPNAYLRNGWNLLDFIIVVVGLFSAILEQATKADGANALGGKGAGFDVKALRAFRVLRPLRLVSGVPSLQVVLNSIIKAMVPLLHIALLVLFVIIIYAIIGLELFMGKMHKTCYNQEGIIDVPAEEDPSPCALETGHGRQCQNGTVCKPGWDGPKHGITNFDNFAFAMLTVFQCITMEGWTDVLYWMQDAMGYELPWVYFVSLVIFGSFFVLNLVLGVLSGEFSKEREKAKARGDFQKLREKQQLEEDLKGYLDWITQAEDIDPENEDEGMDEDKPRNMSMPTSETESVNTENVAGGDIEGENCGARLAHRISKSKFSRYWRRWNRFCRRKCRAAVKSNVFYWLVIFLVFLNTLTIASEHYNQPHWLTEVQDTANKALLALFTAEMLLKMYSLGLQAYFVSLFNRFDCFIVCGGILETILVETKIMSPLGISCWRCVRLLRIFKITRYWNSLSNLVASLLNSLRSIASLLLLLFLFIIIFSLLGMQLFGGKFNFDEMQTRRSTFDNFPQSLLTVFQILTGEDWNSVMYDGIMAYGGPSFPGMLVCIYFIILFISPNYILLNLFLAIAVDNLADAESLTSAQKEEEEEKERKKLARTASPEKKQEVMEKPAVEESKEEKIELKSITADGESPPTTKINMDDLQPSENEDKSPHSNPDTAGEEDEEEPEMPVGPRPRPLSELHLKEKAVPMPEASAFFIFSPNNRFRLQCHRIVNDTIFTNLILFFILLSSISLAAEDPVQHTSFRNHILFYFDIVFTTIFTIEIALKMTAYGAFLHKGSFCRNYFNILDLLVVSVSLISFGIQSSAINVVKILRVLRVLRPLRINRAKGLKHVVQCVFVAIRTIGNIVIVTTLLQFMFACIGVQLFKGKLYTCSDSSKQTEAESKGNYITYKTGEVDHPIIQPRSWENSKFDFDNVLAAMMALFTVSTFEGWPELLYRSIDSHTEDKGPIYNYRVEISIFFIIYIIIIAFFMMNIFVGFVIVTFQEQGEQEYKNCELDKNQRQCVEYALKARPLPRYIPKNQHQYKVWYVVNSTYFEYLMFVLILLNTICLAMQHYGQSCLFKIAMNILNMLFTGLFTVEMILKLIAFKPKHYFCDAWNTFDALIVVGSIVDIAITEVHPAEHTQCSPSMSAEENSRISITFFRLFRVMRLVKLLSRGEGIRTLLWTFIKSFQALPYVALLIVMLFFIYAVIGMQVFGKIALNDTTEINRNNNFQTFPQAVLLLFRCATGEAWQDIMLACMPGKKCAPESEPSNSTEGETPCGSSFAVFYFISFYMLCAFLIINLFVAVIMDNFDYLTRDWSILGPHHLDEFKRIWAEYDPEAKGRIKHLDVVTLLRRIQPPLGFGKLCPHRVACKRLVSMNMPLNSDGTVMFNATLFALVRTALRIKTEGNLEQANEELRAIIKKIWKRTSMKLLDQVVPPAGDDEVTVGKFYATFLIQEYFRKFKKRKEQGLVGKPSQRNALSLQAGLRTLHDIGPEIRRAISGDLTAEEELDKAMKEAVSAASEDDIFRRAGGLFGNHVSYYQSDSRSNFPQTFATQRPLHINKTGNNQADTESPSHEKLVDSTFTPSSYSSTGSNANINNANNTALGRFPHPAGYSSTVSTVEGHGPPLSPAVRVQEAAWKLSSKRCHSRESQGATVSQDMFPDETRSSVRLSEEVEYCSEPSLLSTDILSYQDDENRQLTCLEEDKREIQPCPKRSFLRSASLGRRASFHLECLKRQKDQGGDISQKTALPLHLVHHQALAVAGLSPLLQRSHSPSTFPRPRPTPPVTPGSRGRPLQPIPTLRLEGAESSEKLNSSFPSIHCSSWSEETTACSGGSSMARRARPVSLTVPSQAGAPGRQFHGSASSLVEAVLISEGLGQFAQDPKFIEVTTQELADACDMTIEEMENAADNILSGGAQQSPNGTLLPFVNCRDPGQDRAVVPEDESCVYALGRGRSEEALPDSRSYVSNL
Chain of Mu-type opioid receptor (P35372 whole entry): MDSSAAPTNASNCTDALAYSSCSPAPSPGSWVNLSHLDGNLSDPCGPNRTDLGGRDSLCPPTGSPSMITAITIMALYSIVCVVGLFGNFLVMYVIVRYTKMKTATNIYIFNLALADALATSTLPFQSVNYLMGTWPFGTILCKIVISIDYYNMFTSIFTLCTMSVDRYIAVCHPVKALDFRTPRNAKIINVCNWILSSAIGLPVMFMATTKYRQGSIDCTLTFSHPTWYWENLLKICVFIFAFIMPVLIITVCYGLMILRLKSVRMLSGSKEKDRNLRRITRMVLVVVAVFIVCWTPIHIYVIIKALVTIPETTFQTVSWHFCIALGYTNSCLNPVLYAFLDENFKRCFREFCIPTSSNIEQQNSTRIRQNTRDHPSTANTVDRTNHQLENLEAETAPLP
Chain of Histamine H2 receptor (P25021 whole entry): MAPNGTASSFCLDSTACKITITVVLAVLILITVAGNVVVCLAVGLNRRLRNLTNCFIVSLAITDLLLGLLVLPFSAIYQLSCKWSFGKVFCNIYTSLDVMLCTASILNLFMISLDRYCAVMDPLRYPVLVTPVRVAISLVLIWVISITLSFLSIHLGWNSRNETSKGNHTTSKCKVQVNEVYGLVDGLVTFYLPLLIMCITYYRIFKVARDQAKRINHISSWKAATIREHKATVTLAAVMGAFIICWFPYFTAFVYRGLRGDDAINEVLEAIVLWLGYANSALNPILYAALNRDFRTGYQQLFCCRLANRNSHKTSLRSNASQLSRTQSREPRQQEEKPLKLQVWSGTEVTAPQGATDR
Chain of Beta-2 adrenergic receptor (P07550 whole entry): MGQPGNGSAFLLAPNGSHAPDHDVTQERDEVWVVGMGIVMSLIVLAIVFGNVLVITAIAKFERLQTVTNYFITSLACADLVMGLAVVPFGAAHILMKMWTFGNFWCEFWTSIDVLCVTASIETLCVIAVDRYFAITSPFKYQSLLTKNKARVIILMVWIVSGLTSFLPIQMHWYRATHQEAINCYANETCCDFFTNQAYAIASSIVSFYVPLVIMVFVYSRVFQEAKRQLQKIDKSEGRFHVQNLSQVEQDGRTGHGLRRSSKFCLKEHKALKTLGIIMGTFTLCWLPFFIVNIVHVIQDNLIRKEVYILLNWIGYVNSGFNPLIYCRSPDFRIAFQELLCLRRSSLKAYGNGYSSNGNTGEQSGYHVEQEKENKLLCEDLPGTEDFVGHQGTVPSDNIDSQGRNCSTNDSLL

AC50 [6] [µM]	AC50 (Histamine H3 receptor) [µM]	AC50 [7] [µM]	AC50 [8] [µM]	AC50 [9] [µM]	AC50 (Androgen receptor [10]) [µM]	AC50 [11] [µM]	AC50 [12] [µM]	AC50 (Histamine H1 receptor) [µM]	AC50 [13] [µM]	AC50 (Histamine H2 receptor) [µM]	AC50 [14] [µM]	AC50 (Mu-type opioid receptor) [µM]	AC50 (Androgen receptor [15]) [µM]	SMILES	AC50 [1] [µM]	AC50 (Cannabinoid receptor 1 [2]) [µM]	AC50 (Cannabinoid receptor 1 [3]) [µM]	AC50 (Cannabinoid receptor 1 [4]) [µM]	AC50 [5] [µM]	AC50 (Acetylcholinesterase) [µM]
–	–	–	–	–	–	–	–	–	–	–	–	–	–	N#C[C@@H]1C[C@@H]2C[C@@H]2N1C(=O)[C@@H](N)C12CC3CC(CC(O)(C3)C1)C2 [SAXAGLIPTIN ANHYDROUS]	> 15	–	–	–	–	–
–	–	–	–	–	–	–	–	–	–	–	–	–	–	OCCOCCN1CCN(C2=Nc3ccccc3Sc3ccccc32)CC1 [QUETIAPINE]	–	> 10	> 30	> 30	> 30	> 30
> 30	> 30	> 30	> 30	> 30	9.4	> 30	> 30	> 30	> 30	> 30	> 30	> 30	> 30	CCC(=O)OCC(=O)[C@@]1(OC(=O)CC)[C@H](C)C[C@H]2[C@H]3[C@H]([C@@H](O)C[C@@]21C)[C@@]1(C)C=CC(=O)C=C1C[C@H]3Cl [ALCLOMETASONE DIPROPIONATE]	–	–	> 30	0.58	–	–
